Test results reported in patent publication US20250388542A1, “ANALOGUES OF PENTAMIDINE AND USES THEREFOR” (Auransa Inc., priority 2018, published 2025).

Columns and labels:
Experiment in all cases: CellTiter-Glo cytotoxicity, cancer cell line panel
Assay type in all cases: cell-based
786-O = conditions: Homo sapiens, 786-0, Renal cell carcinoma
Description: (§1) The objective of this study is to investigate potential cell killing effect of Compounds 1-15 on 3 cancer cell lines. 50% inhibition concentration (IC50) was determined for these compounds in various cancer cell lines using CellTiter-Glo™ luminescent cell viability assay at different compound concentrations. Each cell line (e.g., NCI-H209; NCI-H69; and SW1271) was treated with Compounds 1-15 and culture medium contains 0.2% [v/v] DMSO vehicle control. All the cells were cultured in the media supplemented with 10-20% fetal bovine serum at 37° C., 5% CO2 and 95% humidity.
(§2) The objective of this study is to investigate the effect of Compound 1 on cytotoxicity against 61 different types of cancer cell lines. IC50 were values were obtained using CellTiter-Glo™ as described above. Each cell line shown in Table 3 was treated with Compound 1, a standard chemotherapy drug, cisplatin, as reference control and culture medium contains 0.2% [v/v] DMSO vehicle control. All cancer cell lines were cultured in media supplemented with 10-20% fetal bovine serum at 37° C., 5% CO2 and 95% humidity.

A498 = conditions: Homo sapiens; A498, Renal cell carcinoma
Description: as §1, §2

ACHN = conditions: Homo sapiens, Papillary renal cell carcinoma
Description: as §1, §2

BT-474 = conditions: Homo sapiens; BT-474, Invasive ductal carcinoma
Description: as §1, §2

Caki-1 = conditions: Homo sapiens; Caki-1, Clear cell renal cell carcinoma
Description: as §1, §2

HCCC-9810 = conditions: HCCC9810; HCCC-9810, Intrahepatic cholangiocarcinoma
Description: as §1, §2

HCT 116 = conditions: Homo sapiens; HCT 116, Colon carcinoma
Description: as §1, §2

HLE = conditions: Homo sapiens, Hepatocellular carcinoma
Description: as §1, §2

HUH-1 = conditions: Homo sapiens; HUH-1, Hepatocellular carcinoma
Description: as §1, §2

HUH-6 CLONE5 = conditions: HUH-6 CLONE5, Hepatoblastoma carcinoma
Description: as §1, §2

Hep3B = conditions: Homo sapiens, Hepatocellular carcinoma
Description: as §1, §2

HuCCT1 = conditions: Homo sapiens, HuCCT-1; HuCCT1, Intrahepatic cholangiocarcinoma
Description: as §1, §2

JHH-1 = conditions: JHH1; JHH-1, Hepatocellular carcinoma
Description: as §1, §2

JHH-4 = conditions: JHH-4, Hepatocellular carcinoma
Description: as §1, §2

JHH-7 = conditions: JHH7; JHH-7, Hepatocellular carcinoma
Description: as §1, §2

LN-229 = conditions: Homo sapiens; LN-229, Glioblastoma
Description: as §1, §2

Li-7 = conditions: Li-7, Hepatocellular carcinoma
Description: as §1, §2

MHCC97-H = conditions: Homo sapiens, MHCC97H, Hepatocellular carcinoma
Description: as §1, §2

MKN45 = conditions: Homo sapiens, MKN-45; MKN45, Gastric adenocarcinoma
Description: as §1, §2

NCI-H460 = conditions: Homo sapiens; NCI-H460, Large cell lung carcinoma
Description: as §1, §2

NOZ = conditions: Gallbladder carcinoma
Description: as §1, §2

OCUG-1 = conditions: OCUG-1, Gallbladder carcinoma
Description: as §1, §2

OVCAR-3 = conditions: Homo sapiens; OVCAR-3, High grade ovarian serous adenocarcinoma
Description: as §1, §2

OZ = conditions: Intrahepatic cholangiocarcinoma
Description: as §1, §2

SF268 = conditions: Homo sapiens, SF-268; SF268, Astrocytoma
Description: as §1, §2

SK-NEP-1 = conditions: Homo sapiens; SK-NEP-1, Ewing sarcoma
Description: as §1, §2

SNU-354 = conditions: Homo sapiens; SNU-354, Hepatocellular carcinoma
Description: as §1, §2

SNU-368 = conditions: SNU-368, Hepatocellular carcinoma
Description: as §1, §2

SNU-387 = conditions: Homo sapiens; SNU-387, Hepatocellular carcinoma
Description: as §1, §2

SNU-423 = conditions: Homo sapiens; SNU-423, Hepatocellular carcinoma
Description: as §1, §2

SNU-449 = conditions: Homo sapiens; SNU-449, Hepatocellular carcinoma
Description: as §1, §2

SNU-761 = conditions: SNU-761, Hepatocellular carcinoma
Description: as §1, §2

SW 156 = conditions: SW 156, Renal cell carcinoma
Description: as §1, §2

Saos-2 = conditions: Homo sapiens; Saos-2, Osteosarcoma
Description: as §1, §2

U-87 MG = conditions: Homo sapiens, Glioblastoma
Description: as §1, §2

UO.31 = conditions: Homo sapiens; UO.31, Renal cell carcinoma
Description: as §1, §2

N=C(N)c1ccc(OCCCCCOc2ccc(C(=N)N)nc2)cc1 [Compound 1, 5-(5-(4-carbamimidoylphenoxy)pentyloxy)picolinimidamide]
IC50 (786-O): 9.63 µM | IC50 (A498): 1.17 µM | IC50 (ACHN): 4.64 µM | IC50 (BT-474): 15.7 µM | IC50 (Caki-1): 3.42 µM | IC50 (HCCC-9810): 0.71 µM | IC50 (HCT 116): 2.67 µM | IC50 (HLE): 0.59 µM | IC50 (HUH-1): 3.2 µM | IC50 (HUH-6 CLONE5): 0.86 µM | IC50 (Hep3B): 0.28 µM | IC50 (HuCCT1): 8.01 µM | IC50 (JHH-1): 3.87 µM | IC50 (JHH-4): 1.27 µM | IC50 (JHH-7): 0.5 µM | IC50 (LN-229): 1.6 µM | IC50 (Li-7): 0.76 µM | IC50 (MHCC97-H): 8.31 µM | IC50 (MKN45): 0.64 µM | IC50 (NCI-H460): 0.52 µM | IC50 (NOZ): 2.54 µM | IC50 (OCUG-1): 2.89 µM | IC50 (OVCAR-3): 1.96 µM | IC50 (OZ): 9.39 µM | IC50 (SF268): 0.75 µM | IC50 (SK-NEP-1): 1.93 µM | IC50 (SNU-354): 0.84 µM | IC50 (SNU-368): 0.36 µM | IC50 (SNU-387): 4 µM | IC50 (SNU-423): 1.75 µM | IC50 (SNU-449): 1.57 µM | IC50 (SNU-761): 3.31 µM | IC50 (SW 156): 6.28 µM | IC50 (Saos-2): 2.39 µM | IC50 (U-87 MG): 5.58 µM | IC50 (UO.31): 3.47 µM
